Target: T1, Human 5HT6 Receptor (Homo sapiens, UniProt P50406)
T1 construct: expressed in transfected cells; host or cells: HEK293 cells
Test: Binding Assay for Human 5HT6 Receptor
Conditions: [3H]LSD 1.5 nM; human recombinant receptor expressed in HEK293 cells
Method: Binding Assay for Human 5HT6 Receptor
Receptor source: Human recombinant expressed in HEK293 cells
Radioligand: [^3H]LSD (60-80 Ci/mmol)
Final ligand concentration—[1.5 nM]
Non-specific determinant: Methiothepin mesylate—[0.1 μM]
Reference compound: Methiothepin mesylate
Positive control: Methiothepin mesylate
Reactions are carried out in 50 mM TRIS-HCl (pH 7.4) containing 10 mM MgCl2, 0.5 mM EDTA for 60 minutes at 37° C. The reaction is terminated by rapid vacuum filtration onto glass fiber filters. Radioactivity trapped onto the filters is determined and compared to control values in order to ascertain any interactions of test compound(s) with the cloned serotonin—5HT6 binding site.
• Monsma F. J. Jr., et al., Molecular Cloning and Expression of Novel Serotonin Receptor with High Affinity for Tricyclic Psychotropic Drugs. Mol. Pharmacol. (43): 320-327 (1993).

T1 sequence (P50406 whole entry): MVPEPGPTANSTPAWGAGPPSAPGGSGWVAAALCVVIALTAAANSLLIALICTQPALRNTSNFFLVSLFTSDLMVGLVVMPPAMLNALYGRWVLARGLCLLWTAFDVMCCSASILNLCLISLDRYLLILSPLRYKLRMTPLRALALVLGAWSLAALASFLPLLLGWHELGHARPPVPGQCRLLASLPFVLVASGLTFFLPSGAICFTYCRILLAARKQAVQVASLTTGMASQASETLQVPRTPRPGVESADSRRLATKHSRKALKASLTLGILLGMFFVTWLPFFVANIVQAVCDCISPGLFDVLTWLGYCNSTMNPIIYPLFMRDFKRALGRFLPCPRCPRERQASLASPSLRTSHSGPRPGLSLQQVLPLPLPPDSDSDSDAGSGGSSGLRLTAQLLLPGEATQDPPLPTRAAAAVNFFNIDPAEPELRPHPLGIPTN

Row | IC50 [nM] | Ki [nM] | SMILES
1 | 205 | 88.1 | COc1ccc2c(c1)c(C1CCN(C)C1)c1n2S(=O)(=O)c2ccccc2-1 (stereo not shown) [drawing 19]
2 | 383 | 172 | COc1ccc2c(c1)c(C1CCN(C)C1)c1n2S(=O)(=O)c2ccccc2-1 (stereo not shown) [drawing 20]
